According to patent publication US6451736B1, “Substituted aromatic thiocarboxylic acid amides and their use as herbicides” (Bayer Aktiengesellschaft, priority 1994, dated 2002):

Key:
Assay type in all cases: in vivo
[1] = test system: Matricaria; experiment: Pre-emergence test/greenhouse; details: Table B, after three weeks
Procedure: (§1) To produce a suitable preparation of active compound, 1 part by weight of active compound is mixed with the stated amount of solvent, the stated amount of emulsifier is added and the concentrate is diluted with water to the desired concentration.
(§2) Seeds of the test plants are sown in normal soil and, after 24 hours, watered with the preparation of active compound. It is expedient to keep constant the amount of water per unit area. The concentration of the active compound in the preparation is of no importance, only the amount of active compound applied per unit area being decisive. After three weeks, the degree of damage to the plants is rated in % damage in comparison to the development of the untreated control. The figures denote:
(§3) 0%=no action (like untreated control)

[2] = test system: Solanum; experiment: Pre-emergence test/greenhouse; details: Table B, after three weeks
Procedure: as §1, §2, §3

[3] = test system: Portulaca; experiment: Pre-emergence test/greenhouse; details: Table B, after three weeks
Procedure: as §1, §2, §3

[4] = test system: Chenopodium; experiment: Pre-emergence test/greenhouse; details: Table B, after three weeks
Procedure: as §1, §2, §3

[5] = test system: Wheat; experiment: Pre-emergence test/greenhouse; details: Table B, after three weeks
Procedure: as §1, §2, §3

[6] = test system: Abuthilon; experiment: Pre-emergence test/greenhouse; details: Table B, after three weeks
Procedure: as §1, §2, §3

[7] = test system: Maize; experiment: Pre-emergence test/greenhouse; details: Table B, after three weeks
Procedure: as §1, §2, §3

[8] = test system: Amaranthus; experiment: Pre-emergence test/greenhouse; details: Table B, after three weeks
Procedure: as §1, §2, §3

[9] = test system: Solanum; experiment: Post-emergence test/greenhouse; details: Table C, after three weeks
Procedure: as §1
(§4) Test plants which have a height of 5-15 cm are sprayed with the preparation of active compound in such a way as to apply the particular amounts of active compound desired per unit area. After three weeks, the degree of damage to the plants is rated in % damage in comparison to the development of the untreated control.
(§5) 0%=no action (like intreated control)

[10] = test system: Veronica; experiment: Post-emergence test/greenhouse; details: Table C, after three weeks
Procedure: as §1, §4, §5

[11] = test system: Chenopodium; experiment: Post-emergence test/greenhouse; details: Table C, after three weeks
Procedure: as §1, §4, §5

[12] = test system: Wheat; experiment: Post-emergence test/greenhouse; details: Table C, after three weeks
Procedure: as §1, §4, §5

[13] = test system: Abuthilon; experiment: Post-emergence test/greenhouse; details: Table C, after three weeks
Procedure: as §1, §4, §5

[14] = test system: Maize; experiment: Post-emergence test/greenhouse; details: Table C, after three weeks
Procedure: as §1, §4, §5

[15] = test system: Amaranthus; experiment: Post-emergence test/greenhouse; details: Table C, after three weeks
Procedure: as §1, §4, §5

| Compound | degree of damage, Matricaria ([1]; 60 g/ha) [%] | degree of damage, Solanum ([2]; 60 g/ha) [%] | degree of damage, Portulaca ([3]; 60 g/ha) [%] | degree of damage, Chenopodium ([4]; 60 g/ha) [%] | degree of damage, Wheat ([5]; 60 g/ha) [%] | degree of damage, Abuthilon ([6]; 60 g/ha) [%] | degree of damage, Maize ([7]; 60 g/ha) [%] | degree of damage, Amaranthus ([8]; 60 g/ha) [%] | degree of damage, Solanum ([9]; 8 g/ha) [%] | degree of damage, Veronica ([10]; 8 g/ha) [%] | degree of damage, Chenopodium ([11]; 8 g/ha) [%] | degree of damage, Wheat ([12]; 8 g/ha) [%] | degree of damage, Abuthilon ([13]; 8 g/ha) [%] | degree of damage, Solanum ([9]; 15 g/ha) [%] | degree of damage, Veronica ([10]; 15 g/ha) [%] | degree of damage, Chenopodium ([11]; 15 g/ha) [%] | degree of damage, Wheat ([12]; 15 g/ha) [%] | degree of damage, Abuthilon ([13]; 15 g/ha) [%] | degree of damage, Maize ([14]; 15 g/ha) [%] | degree of damage, Amaranthus ([15]; 15 g/ha) [%] | further results |
| --- | --- | --- | --- | --- | --- | --- | --- | --- | --- | --- | --- | --- | --- | --- | --- | --- | --- | --- | --- | --- | --- |
| CC(C)Oc1cc(N2C(=O)C3CCCCN3C2=O)c(F)cc1C(N)=S (stereo not drawn) [Example 46] | 100 | 100 | 100 | 100 | 0 | 100 | 70 | 100 | 100 | 100 | 95 | 15 | 100 |  |  |  |  |  |  |  | degree of damage, Maize ([14]; 8 g/ha): 20%; degree of damage, Amaranthus ([15]; 8 g/ha): 100% |
| CCS(=O)(=O)Nc1cc(-n2nc(C3CC3)n(C)c2=O)c(F)cc1C(N)=S [Example 13] | 70 | 100 | 90 | 100 | 0 | 100 | 0 | 100 |  |  |  |  |  | 100 | 90 | 80 | 0 | 95 | 30 | 100 |  |
| CCS(=O)(=O)Nc1cc(-n2nc(C(F)F)n(C)c2=O)c(F)cc1C(N)=S [Example 9] | 95 | 100 | 90 | 100 | 0 | 100 | 0 | 100 |  |  |  |  |  |  |  |  |  |  |  |  | degree of damage, Solanum ([9]; 60 g/ha): 100%; degree of damage, Veronica ([10]; 60 g/ha): 100%; degree of damage, Chenopodium ([11]; 60 g/ha): 100%; degree of damage, Wheat ([12]; 60 g/ha): 10%; degree of damage, Abuthilon ([13]; 60 g/ha): 100%; degree of damage, Maize ([14]; 60 g/ha): 30%; degree of damage, Amaranthus ([15]; 60 g/ha): 100% |
| C#CC(C)Oc1cc(-n2nc(C(F)(F)F)n(C)c2=O)c(F)cc1C(N)=S (stereo not drawn) [Example 32] |  |  |  |  |  |  |  |  |  |  |  |  |  |  |  |  |  |  |  |  | degree of damage, Matricaria ([1]; 30 g/ha): 100%; degree of damage, Solanum ([2]; 30 g/ha): 100%; degree of damage, Portulaca ([3]; 30 g/ha): 95%; degree of damage, Chenopodium ([4]; 30 g/ha): 100%; degree of damage, Wheat ([5]; 30 g/ha): 10%; degree of damage, Maize ([7]; 30 g/ha): 0%; degree of damage, Amaranthus ([8]; 30 g/ha): 100%; degree of damage, Solanum ([9]; 4 g/ha): 100%; degree of damage, Veronica ([10]; 4 g/ha): 100%; degree of damage, Chenopodium ([11]; 4 g/ha): 95%; degree of damage, Wheat ([12]; 4 g/ha): 15%; degree of damage, Abuthilon ([13]; 4 g/ha): 100%; degree of damage, Maize ([14]; 4 g/ha): 30%; degree of damage, Amaranthus ([15]; 4 g/ha): 100% |
| CCS(=O)(=O)Nc1cc(-n2nc(C(F)(F)F)n(C)c2=S)c(F)cc1C(N)=S [Example 31] | 100 | 100 | 100 | 100 | 0 | 100 | 0 | 100 | 100 | 100 | 90 | 0 | 100 |  |  |  |  |  |  |  | degree of damage, Maize ([14]; 8 g/ha): 70%; degree of damage, Amaranthus ([15]; 8 g/ha): 100% |
| CC(C)Oc1cc(-n2nc3n(c2=O)CCCC3)c(F)cc1C(N)=S [Example 17] |  |  |  |  |  |  |  |  | 100 | 100 | 95 | 10 | 100 |  |  |  |  |  |  |  | degree of damage, Matricaria ([1]; 30 g/ha): 100%; degree of damage, Solanum ([2]; 30 g/ha): 100%; degree of damage, Portulaca ([3]; 30 g/ha): 100%; degree of damage, Chenopodium ([4]; 30 g/ha): 100%; degree of damage, Wheat ([5]; 30 g/ha): 0%; degree of damage, Abuthilon ([6]; 30 g/ha): 100%; degree of damage, Maize ([7]; 30 g/ha): 0%; degree of damage, Amaranthus ([8]; 30 g/ha): 100%; degree of damage, Maize ([14]; 8 g/ha): 10%; degree of damage, Amaranthus ([15]; 8 g/ha): 100% |
| Cn1c(C(F)(F)F)nn(-c2cc(NS(C)(=O)=O)c(C(N)=S)cc2F)c1=S [Example 34] | 100 | 100 | 100 | 100 | 0 | 100 | 0 | 100 |  |  |  |  |  | 100 | 100 | 100 | 0 | 100 | 30 | 100 |  |
| CCS(=O)(=O)Nc1cc(N2C(=O)C3=C(CCCC3)C2=O)c(F)cc1C(N)=S [Example 23] | 100 | 70 | 95 | 95 | 0 | 95 | 0 | 70 |  |  |  |  |  |  |  |  |  |  |  |  | degree of damage, Solanum ([9]; 30 g/ha): 100%; degree of damage, Veronica ([10]; 30 g/ha): 100%; degree of damage, Chenopodium ([11]; 30 g/ha): 90%; degree of damage, Wheat ([12]; 30 g/ha): 0%; degree of damage, Abuthilon ([13]; 30 g/ha): 95%; degree of damage, Maize ([14]; 30 g/ha): 50% |
| CCS(=O)(=O)Nc1cc(-n2nc3n(c2=O)CCCC3)c(F)cc1C(N)=S [Example 1, 2-(2-fluoro-5-ethylsulphonylamino-4-thiocarbamoyl-phenyl)-5,6,7,8-tetrahydro-1,2,4-triazolo[4,3-a]pyridin-3(2H)-one] |  |  |  |  |  |  |  |  |  |  |  |  |  | 100 | 100 | 95 | 10 | 100 | 50 | 95 | degree of damage, Matricaria ([1]; 125 g/ha): 95%; degree of damage, Solanum ([2]; 125 g/ha): 100%; degree of damage, Portulaca ([3]; 125 g/ha): 100%; degree of damage, Chenopodium ([4]; 125 g/ha): 100%; degree of damage, Wheat ([5]; 125 g/ha): 0%; degree of damage, Abuthilon ([6]; 125 g/ha): 100%; degree of damage, Maize ([7]; 125 g/ha): 0%; degree of damage, Amaranthus ([8]; 125 g/ha): 100% |
| COCCOCCOc1cc(-n2nc(C)n(C(F)F)c2=O)c(F)cc1C(N)=S [Example 51] |  |  |  |  |  |  |  |  |  |  |  |  |  | 100 | 100 | 70 | 15 | 100 | 60 | 100 | degree of damage, Matricaria ([1]; 30 g/ha): 95%; degree of damage, Solanum ([2]; 30 g/ha): 100%; degree of damage, Portulaca ([3]; 30 g/ha): 100%; degree of damage, Chenopodium ([4]; 30 g/ha): 100%; degree of damage, Wheat ([5]; 30 g/ha): 0%; degree of damage, Abuthilon ([6]; 30 g/ha): 100%; degree of damage, Maize ([7]; 30 g/ha): 20% |
